US20100317685A1, “N-PHENYL-IMIDAZO[1,2-a]PYRIDINE-2-CARBOXAMIDE DERIVATIVES, THEIR PREPARATION AND THEIR THERAPEUTIC APPLICATION” (SANOFI-AVENTIS, priority 2008, published 2010)

Biological target: T1, mouse Nurr1 receptor (Mus musculus, UniProt Q06219)
T1 construct: a cell line (N2A) endogenously expressing the mouse Nurr1 receptor; host or cells: Neuro-2A (N2A) mouse neuroblastoma cells stably transfected with 8NBRE-luciferase
Assay: In vitro activity on N2A cells (NBRE-luciferase reporter)
Format: cell-based
Conditions: N2A-8NBRE cells, 24 hours incubation
Description: Evaluation of the In Vitro Activity on N2A Cells
The activity of the compounds according to the invention was evaluated on a cell line (N2A) endogenously expressing the mouse Nurr1 receptor and stably transfected with the NOT binding response element (NBRE) coupled to the luciferase reporter gene. The EC50 values are between 0.01 and 1000 nM. The assays were carried out according to the procedure described below.
The Neuro-2A cell line comes from a standard commercial source (ATCC). The Neuro-2A clone was obtained, from a spontaneous tumour originating from an A albino mouse strain, by R. J Klebe et al. This Neuro-2A line is subsequently stably transfected with 8NBRE-luciferase. The N2A-8NBRE cells are cultured until confluence in 75 cm^2 culture flasks containing DMEM supplemented with 10% of foetal calf serum, 4.5 g/l of glucose and 0.4 mg/ml of geneticin. After a week of culture, the cells are recovered with 0.25% trypsin for 30 seconds and then resuspended in DMEM without phenol red, containing 4.5 g/l of glucose and 10% of Hyclone delipidized serum, and deposited into transparent-bottom 96-well white plates. The cells are deposited at a rate of 60 000 per well in 75 μl for 24 hours before the addition of the products. […] The plates are subsequently measured in a luminescence counter for microplates after having been sealed with an adhesive film. […]

T1 sequence (Q06219 whole entry): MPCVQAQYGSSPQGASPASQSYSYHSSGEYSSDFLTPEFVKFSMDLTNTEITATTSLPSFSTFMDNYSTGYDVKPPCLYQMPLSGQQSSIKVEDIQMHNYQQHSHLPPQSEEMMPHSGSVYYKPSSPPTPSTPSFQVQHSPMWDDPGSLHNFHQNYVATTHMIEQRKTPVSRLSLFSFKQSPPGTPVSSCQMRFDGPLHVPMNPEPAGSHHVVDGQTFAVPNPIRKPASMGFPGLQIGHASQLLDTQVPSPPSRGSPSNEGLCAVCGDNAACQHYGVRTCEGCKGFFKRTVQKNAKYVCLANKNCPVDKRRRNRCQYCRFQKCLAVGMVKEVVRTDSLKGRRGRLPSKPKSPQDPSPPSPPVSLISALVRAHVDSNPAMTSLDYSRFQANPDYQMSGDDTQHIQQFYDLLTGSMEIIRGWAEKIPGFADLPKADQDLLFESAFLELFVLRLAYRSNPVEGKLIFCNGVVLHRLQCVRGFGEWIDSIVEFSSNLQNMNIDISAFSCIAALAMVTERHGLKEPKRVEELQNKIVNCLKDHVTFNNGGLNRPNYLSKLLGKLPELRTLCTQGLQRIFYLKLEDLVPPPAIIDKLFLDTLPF

SMILES	EC50
N#Cc1cccc(NC(=O)c2cn3cc(-c4cccc(CO)c4)ccc3n2)c1 [Compound 5, N-(3-cyanophenyl)-6-[3-(hydroxymethyl)phenyl]imidazo[1,2-a]pyridine-2-carboxamide]	27 nM
N#Cc1c(F)cccc1NC(=O)c1cn2cc(-c3cccc(CO)c3)ccc2n1 [Compound 8, N-(2-cyano-3-fluorophenyl)-6-[3-(hydroxymethyl)phenyl]imidazo[1,2-a]pyridine-2-carboxamide]	0.4 nM
